Measured values as given in patent publication US20120022143A1, “RNA Interference Mediated Inhibition of the Thymic Stromal Lymphopoietin (TSLP) Gene Expression Using Short Interfering Nucliec Acid (siNA)” (Merck Sharp & Dohme Corp, priority 2009, published 2012).
[invAb] = inverted abasic unit; m = 2'-O-methyl; r = 2'-OH (RNA); f = 2'-fluoro

What was measured:
TSLP mRNA [1] = assay: Initial screening: TSLP mRNA knock-down by RT-PCR (Taqman) after RNAiMax transfection of NHLF cells; type: cell-based; conditions: 10 nM siNA, human NHLF cells
mTSLP mRNA = assay: Initial screening: mouse TSLP mRNA knock-down by RT-PCR (Taqman) after RNAiMax transfection of NIH 3T3 cells; type: cell-based; conditions: 10 nM siNA, 24 hrs post-transfection, mean ± s.d., summary from 2 screens
TSLP mRNA [2] = assay: Dose response curves of TSLP mRNA knock-down in NHLF cells; type: cell-based; conditions: human NHLF cells, mean ± s.d.
Procedure: NHLF (human; Lonza cat# CC-2512): Cells were cultured at 37° C. in the presence of 5% CO2 and grown Fibroblast Basal Medium (Lonza cat# CC-3β2) supplemented growth factors (provided with the kit) and 100 μg/mL of streptomycin and 100 U/mL penicillin.
Dose response curves were carried out in a similar fashion in 96-well plates, while maintaining a constant amount of RNAiMax in each transfection.
RNA was extracted from a 96-well plate using the TaqMan® Gene Expression Cells-to-CT™ Kit (Cat# 4399002) with a modified protocol. Briefly, a 60 uL (1 plate) or 110 uL (2 plates) of the Lysis Solution with DNase I was dispensed into each well of the Lysis Buffer Plate (twin.tec full skirt plate). The lysis buffer and stop plates were stored at 4° C. until the cells were washed.
Each well of the reverse transcription plate required 10 uL of 2× reverse transcriptase Buffer, luL of 20× reverse transcription enzyme and 2 uL of nuclease-free water. The reverse transcription master mix was prepared by mixing 2× reverse transcription buffer, 20× reverse transcription enzyme mix, and nuclease-free water. 13 uL of the reverse transcription master mix was dispensed into each well of the reverse transcription plate (semi-skirted). A separate reverse transcription plate was prepared for each cell plate. The plate was loaded onto a Biomek NX or Biomek FX Dual-96 and the Biomek method was run. The program is programmed to automatically added 7 uL of lysate from the cell lysis procedure described above into each well of the reverse transcription plate. The plate is sealed and spun on a centrifuge (1000 rpm for 30 seconds) to settle the contents to the bottom of the reverse transcription plate. The plate is placed in a thermocycler at 37° C. for 60 min, 95° C. for 5 min, and 4° C. until the plate is removed from the thermocycler. Upon removal, if not used immediately, the plate was frozen at −20° C.
A series of probes and primers were used to detect the various mRNA transcripts of the genes of TSLP, IL-8 and GAPDH in human cell lines. All the Taqman probes and primers for the experiments here-in described were supplied as pre-validated sets by Applied Biosystems, Inc. (see Table 2). The assays were performed on an ABI 7900 instrument, according to the manufacturer's instructions.
A TaqMan Gene Expression Master Mix (provided in the Cells-to-CT™, Applied Biosystems, Cat #4399002) was used. The PCR reactions were carried out at 50° C. for 2 min, 95° C. for 20 min followed by 40 cycles at 95° C. for 15 secs and 60° C. for 1 min.
The expression level of the gene of interest and % knock-down was calculated using Comparative Ct method: […]
All calculations of IC50s were performed using SigmaPlot 10.0 software. The data were analyzed using the sigmoidal dose-response (variable slope) equation for simple ligand binding. In all of the calculations of the % knock-down, the calculation was made relative to the normalized level of expression of the gene of interest in the samples treated with the non-targeting control (Ctrl siNA) unless otherwise indicated.
Summary data, as to potency and efficacy for TSLP mRNA knock-down in human cells for certain siNA molecules, is presented in Table 5. Cells for the experiments were treated with 12 concentrations of siNA ranging from 0.083 fM to 30 nM. All of the data is presented as % knockdown of TSLP normalized against the expression of GAPDH mRNA expression level. Then the data was determined as a % knockdown relative to the non-targeting control siNA.

TSLP protein = assay: TSLP ELISA in IL-1β/TNFα-stimulated NHLF cells; type: cell-based, human; conditions: relative to UC3 siRNA at matched concentration, siNA range 10 nM-0.00015 nM, concentration of the value not stated, mean ± s.d.
Procedure: In a 96-well plate, 57,500 NHLFcells/well were seeded in 100 uL of complete growth media and incubated overnight at 37° C. with 5% CO2. The cells were transfected with siNAs using RNAiMax (Invitrogen, Cat#13778-150); final concentration of siNAs is 10 nM-0.00015 nM. The amount of RNAiMax in each well is 0.3 uL. The siNAs were incubated for 6 hours. The medium was replaced with 95 uL of fresh complete growth medium and 5 uL/well of IL-1β/TNFα at 10 ng/ml final concentration was added. The cells were incubated for 24 hours. 95 uL of the medium from each well was collected into a separate 96-well plate. The samples were frozen immediately at −80° C. until ready the assay was ready to be performed.
ELISA was performed using DuoSet ELISA Development System (R&D systems, Cat # DY1398) according to the manufacturer's instructions. A seven point standard curve using 2-fold serial dilution in reagent diluent buffer and a high standard of 1000 pg/ml was used. The samples were not diluted. Absorbance was obtained at […] (LM1) and […] (LM2) and the difference (LM1-LM2) was recorded on a SpectraMax plate reader (Molecular Devices) within 30 minutes of stopping the reaction.
Various siNAs were also evaluated for their potential to knock-down TSLP protein using an ELISA assay. Six siNAs were tested in an TSLP ELISA assay across a range of concentrations of siNAs and the level of reduction of protein was determined relative to treatment of the cells with identical concentrations of the negative universal control siNA (UC3) (see Table 6).

With “25436-DC: siNA duplex: sense B GccAAGuuuuAAAuAuuAu TTB (SEQ ID NO: 55), antisense AUAAuAuuuAAAAcuuGGcUU (SEQ ID NO: 56) (sense GCCAAGUUUUAAAUAUUAUTT; antisense AUAAUAUUUAAAACUUGGCUU; sense: DNA at AGT, 2'-fluoro at CU, [invAb] at 5' end, 3' end, backbone not given here; antisense: sugars from the 5' end rrrmfmfffmmmmfffmmfmm, backbone not given here)” the “% KD TSLP” value (TSLP mRNA [1]; 24 hrs post-transfection, relative to non-targeting control, normalized to GAPDH, mean ± s.d. from 2 experiments) was 90 ± 5.1%, the “% KD TSLP (10 nM)” value (TSLP mRNA [1]; mean ± s.d. (Table 5)) was 90 ± 5.1% and the “% KD mTSLP NIH3T3” value (mTSLP mRNA) was 19.3 ± 6.1%. The IC50 (TSLP mRNA [2]; TSLP mRNA knock-down, 12 concentrations from 0.083 fM to 30 nM) was 4.1 ± 1.6 pM, the “Maximum % KD in DRC” value (TSLP mRNA [2]; 12 concentrations of siNA from 0.083 fM to 30 nM) was 86 ± 3% and the “% Reduction TSLP Protein” value (TSLP protein) was 71.7 ± 20.3%.
